From paper PMC9030254, “Target Hopping from Protein Kinases to PXR: Identification of Small-Molecule Protein Kinase Inhibitors as Selective Modulators of Pregnane X Receptor from TüKIC Library” (Cells, 2022)

Columns and labels:
Assay in all cases: Kinase profiling
Format in all cases: biochemical
[1] = target: T1, TEC (Homo sapiens, UniProt P42680)
T1 construct: purchased ProQinase (Freiburg, Germany)
T1 sequence (P42680 1-631): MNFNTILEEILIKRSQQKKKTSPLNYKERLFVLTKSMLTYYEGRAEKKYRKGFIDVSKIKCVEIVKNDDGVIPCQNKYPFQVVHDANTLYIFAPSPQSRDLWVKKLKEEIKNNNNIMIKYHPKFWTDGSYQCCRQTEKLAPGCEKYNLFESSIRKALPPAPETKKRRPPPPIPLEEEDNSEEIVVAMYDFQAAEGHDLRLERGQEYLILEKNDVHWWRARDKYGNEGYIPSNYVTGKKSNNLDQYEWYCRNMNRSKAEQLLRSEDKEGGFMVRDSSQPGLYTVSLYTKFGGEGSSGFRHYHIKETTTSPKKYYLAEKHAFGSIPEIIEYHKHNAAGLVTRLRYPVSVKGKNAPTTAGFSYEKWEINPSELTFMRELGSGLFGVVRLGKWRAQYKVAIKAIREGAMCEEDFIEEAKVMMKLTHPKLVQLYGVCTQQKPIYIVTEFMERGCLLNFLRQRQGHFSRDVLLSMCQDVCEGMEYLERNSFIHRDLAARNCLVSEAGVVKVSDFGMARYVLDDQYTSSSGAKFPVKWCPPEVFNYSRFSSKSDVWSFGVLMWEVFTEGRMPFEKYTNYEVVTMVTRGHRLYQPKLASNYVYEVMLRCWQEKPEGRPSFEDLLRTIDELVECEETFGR
Experimental: (§1) The analysis was performed by ProQinase (Freiburg, Germany).

[2] = target: T2, KIT (Homo sapiens, UniProt P10721)
T2 construct: purchased ProQinase (Freiburg, Germany)
Experimental: as §1

[3] = target: T3, CDK6/CycD3 (Homo sapiens, UniProt Q00534)
T3 construct: purchased ProQinase (Freiburg, Germany)
Experimental: as §1

[4] = target: T4, MAP3K10 (Homo sapiens, UniProt Q02779)
T4 construct: purchased ProQinase (Freiburg, Germany)
T4 sequence (Q02779 whole entry): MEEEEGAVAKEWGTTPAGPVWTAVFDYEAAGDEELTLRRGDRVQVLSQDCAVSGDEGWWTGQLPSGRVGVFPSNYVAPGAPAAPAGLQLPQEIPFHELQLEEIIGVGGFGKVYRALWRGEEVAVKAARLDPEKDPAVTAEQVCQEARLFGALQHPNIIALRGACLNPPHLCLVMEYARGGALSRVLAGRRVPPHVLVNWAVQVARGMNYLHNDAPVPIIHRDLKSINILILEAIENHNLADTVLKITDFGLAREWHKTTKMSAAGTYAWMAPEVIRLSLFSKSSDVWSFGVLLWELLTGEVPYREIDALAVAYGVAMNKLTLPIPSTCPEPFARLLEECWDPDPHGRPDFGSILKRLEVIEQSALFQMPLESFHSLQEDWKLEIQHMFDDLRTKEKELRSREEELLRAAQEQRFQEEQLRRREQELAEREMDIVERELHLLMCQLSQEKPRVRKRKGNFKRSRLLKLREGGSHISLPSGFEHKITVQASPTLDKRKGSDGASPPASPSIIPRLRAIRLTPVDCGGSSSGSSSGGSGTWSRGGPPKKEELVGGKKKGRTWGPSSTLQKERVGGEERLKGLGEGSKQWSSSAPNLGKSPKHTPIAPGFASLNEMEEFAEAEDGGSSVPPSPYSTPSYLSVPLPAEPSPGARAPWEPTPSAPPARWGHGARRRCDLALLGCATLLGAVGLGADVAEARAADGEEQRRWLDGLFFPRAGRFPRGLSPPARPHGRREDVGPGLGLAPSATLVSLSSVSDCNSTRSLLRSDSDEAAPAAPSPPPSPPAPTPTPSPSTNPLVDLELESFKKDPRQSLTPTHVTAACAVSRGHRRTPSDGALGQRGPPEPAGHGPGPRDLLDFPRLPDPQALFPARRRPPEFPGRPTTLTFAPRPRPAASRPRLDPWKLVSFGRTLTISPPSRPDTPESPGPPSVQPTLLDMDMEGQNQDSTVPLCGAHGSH
Experimental: as §1

[5] = target: T5, EPHB4 (Homo sapiens, UniProt P54760)
T5 construct: purchased ProQinase (Freiburg, Germany)
T5 sequence (P54760 16-987): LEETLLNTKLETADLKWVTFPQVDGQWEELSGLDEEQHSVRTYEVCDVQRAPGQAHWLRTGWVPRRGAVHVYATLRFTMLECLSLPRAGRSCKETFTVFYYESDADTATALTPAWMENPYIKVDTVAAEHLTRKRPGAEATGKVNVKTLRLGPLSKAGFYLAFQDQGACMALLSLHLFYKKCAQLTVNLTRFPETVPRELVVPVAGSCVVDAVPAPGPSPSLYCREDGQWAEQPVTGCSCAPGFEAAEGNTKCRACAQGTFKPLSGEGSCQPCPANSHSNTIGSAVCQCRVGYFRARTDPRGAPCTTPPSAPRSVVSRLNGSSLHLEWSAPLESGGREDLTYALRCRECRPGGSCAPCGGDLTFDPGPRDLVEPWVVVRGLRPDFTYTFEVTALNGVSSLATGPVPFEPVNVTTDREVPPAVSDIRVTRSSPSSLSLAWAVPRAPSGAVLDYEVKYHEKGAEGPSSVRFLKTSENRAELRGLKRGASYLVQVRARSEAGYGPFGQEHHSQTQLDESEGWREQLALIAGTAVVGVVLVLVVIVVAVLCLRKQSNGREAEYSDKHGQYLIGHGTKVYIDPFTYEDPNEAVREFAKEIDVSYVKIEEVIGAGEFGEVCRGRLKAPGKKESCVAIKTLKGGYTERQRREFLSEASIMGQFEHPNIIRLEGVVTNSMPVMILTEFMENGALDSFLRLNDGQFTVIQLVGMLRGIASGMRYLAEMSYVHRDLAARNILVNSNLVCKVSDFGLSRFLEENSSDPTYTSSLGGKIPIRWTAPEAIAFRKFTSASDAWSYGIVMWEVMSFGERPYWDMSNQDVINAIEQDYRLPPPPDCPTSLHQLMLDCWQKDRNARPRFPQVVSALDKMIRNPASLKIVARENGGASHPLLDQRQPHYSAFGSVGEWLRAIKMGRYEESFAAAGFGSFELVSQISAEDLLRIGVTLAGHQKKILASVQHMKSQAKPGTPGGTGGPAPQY
Experimental: as §1

[6] = target: T6, CDK4/CycD1 (Homo sapiens, UniProt P11802)
T6 construct: purchased ProQinase (Freiburg, Germany)
T6 sequence (P11802 whole entry): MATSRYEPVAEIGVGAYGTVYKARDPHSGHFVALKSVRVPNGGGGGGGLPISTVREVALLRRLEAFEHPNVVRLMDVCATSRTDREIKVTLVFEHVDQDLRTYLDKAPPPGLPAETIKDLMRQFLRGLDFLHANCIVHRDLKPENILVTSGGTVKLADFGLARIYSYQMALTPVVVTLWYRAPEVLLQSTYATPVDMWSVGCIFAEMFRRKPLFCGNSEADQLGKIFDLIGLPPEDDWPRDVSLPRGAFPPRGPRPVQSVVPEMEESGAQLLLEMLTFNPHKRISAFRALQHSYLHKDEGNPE
T6 sequence (P24385 whole entry partner): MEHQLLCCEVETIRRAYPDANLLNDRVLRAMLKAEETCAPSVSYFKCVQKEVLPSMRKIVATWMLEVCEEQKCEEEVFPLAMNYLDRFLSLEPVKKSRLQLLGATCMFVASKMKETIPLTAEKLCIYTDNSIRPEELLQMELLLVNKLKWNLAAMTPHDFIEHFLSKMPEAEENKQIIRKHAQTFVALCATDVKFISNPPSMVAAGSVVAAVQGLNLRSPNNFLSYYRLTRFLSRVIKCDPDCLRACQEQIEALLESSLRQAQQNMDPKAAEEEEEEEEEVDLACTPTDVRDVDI
Experimental: as §1

[7] = target: T7, WEE1 (Homo sapiens, UniProt P30291)
T7 construct: purchased ProQinase (Freiburg, Germany)
T7 sequence (P30291 whole entry): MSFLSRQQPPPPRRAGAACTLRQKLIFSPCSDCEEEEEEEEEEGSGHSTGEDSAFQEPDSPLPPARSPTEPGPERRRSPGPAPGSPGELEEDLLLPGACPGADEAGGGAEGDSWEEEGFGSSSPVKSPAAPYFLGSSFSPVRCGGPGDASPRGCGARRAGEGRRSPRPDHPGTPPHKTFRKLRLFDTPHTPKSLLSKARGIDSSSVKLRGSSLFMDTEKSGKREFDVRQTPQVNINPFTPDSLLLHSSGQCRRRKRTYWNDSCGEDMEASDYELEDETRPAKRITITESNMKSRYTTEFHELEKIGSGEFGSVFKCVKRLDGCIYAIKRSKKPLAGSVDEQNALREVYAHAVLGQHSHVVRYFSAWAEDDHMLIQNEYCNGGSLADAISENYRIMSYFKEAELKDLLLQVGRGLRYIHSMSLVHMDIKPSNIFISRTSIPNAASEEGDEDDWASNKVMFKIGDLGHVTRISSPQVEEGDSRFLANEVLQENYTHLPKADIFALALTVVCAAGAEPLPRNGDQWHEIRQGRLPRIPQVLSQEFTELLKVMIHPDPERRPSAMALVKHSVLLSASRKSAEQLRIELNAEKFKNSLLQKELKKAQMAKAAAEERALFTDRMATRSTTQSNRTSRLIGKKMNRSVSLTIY
Experimental: as §1

[8] = target: T8, MKNK1 (Homo sapiens, UniProt Q9BUB5)
T8 construct: purchased ProQinase (Freiburg, Germany)
T8 sequence (Q9BUB5 whole entry): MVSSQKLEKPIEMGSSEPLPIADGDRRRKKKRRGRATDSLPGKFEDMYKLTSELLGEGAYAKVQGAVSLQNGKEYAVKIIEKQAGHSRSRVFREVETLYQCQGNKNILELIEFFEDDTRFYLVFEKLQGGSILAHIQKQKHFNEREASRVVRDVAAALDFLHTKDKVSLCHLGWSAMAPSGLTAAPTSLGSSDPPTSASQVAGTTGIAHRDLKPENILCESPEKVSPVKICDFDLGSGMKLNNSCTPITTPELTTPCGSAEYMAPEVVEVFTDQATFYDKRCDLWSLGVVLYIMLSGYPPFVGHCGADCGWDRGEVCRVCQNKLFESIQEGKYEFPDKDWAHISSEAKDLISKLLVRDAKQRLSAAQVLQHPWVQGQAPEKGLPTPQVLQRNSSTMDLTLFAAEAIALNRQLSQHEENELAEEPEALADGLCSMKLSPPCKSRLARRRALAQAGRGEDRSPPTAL
Experimental: as §1

[9] = target: T9, S6K (Homo sapiens, UniProt P23443)
T9 construct: purchased ProQinase (Freiburg, Germany)
T9 sequence (P23443 whole entry): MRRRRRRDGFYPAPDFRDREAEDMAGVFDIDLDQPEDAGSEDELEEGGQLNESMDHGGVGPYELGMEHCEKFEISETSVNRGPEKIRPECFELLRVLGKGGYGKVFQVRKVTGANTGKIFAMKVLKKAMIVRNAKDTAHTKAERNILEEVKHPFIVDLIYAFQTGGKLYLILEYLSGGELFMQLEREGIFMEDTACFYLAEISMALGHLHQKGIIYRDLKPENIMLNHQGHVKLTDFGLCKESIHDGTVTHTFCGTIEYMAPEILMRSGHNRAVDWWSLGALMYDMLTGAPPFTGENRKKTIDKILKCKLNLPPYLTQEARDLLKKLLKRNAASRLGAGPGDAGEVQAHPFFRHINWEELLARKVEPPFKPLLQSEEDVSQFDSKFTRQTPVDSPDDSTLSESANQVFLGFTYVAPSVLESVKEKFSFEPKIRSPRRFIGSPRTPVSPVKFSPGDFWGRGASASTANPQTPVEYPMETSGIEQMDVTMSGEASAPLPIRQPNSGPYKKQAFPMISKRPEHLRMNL
Experimental: as §1

[10] = target: T10, LYN (Homo sapiens, UniProt P07948)
T10 construct: purchased ProQinase (Freiburg, Germany)
Experimental: as §1

[11] = target: T11, ROCK1 (Homo sapiens, UniProt Q13464)
T11 construct: purchased ProQinase (Freiburg, Germany)
T11 sequence (Q13464 whole entry): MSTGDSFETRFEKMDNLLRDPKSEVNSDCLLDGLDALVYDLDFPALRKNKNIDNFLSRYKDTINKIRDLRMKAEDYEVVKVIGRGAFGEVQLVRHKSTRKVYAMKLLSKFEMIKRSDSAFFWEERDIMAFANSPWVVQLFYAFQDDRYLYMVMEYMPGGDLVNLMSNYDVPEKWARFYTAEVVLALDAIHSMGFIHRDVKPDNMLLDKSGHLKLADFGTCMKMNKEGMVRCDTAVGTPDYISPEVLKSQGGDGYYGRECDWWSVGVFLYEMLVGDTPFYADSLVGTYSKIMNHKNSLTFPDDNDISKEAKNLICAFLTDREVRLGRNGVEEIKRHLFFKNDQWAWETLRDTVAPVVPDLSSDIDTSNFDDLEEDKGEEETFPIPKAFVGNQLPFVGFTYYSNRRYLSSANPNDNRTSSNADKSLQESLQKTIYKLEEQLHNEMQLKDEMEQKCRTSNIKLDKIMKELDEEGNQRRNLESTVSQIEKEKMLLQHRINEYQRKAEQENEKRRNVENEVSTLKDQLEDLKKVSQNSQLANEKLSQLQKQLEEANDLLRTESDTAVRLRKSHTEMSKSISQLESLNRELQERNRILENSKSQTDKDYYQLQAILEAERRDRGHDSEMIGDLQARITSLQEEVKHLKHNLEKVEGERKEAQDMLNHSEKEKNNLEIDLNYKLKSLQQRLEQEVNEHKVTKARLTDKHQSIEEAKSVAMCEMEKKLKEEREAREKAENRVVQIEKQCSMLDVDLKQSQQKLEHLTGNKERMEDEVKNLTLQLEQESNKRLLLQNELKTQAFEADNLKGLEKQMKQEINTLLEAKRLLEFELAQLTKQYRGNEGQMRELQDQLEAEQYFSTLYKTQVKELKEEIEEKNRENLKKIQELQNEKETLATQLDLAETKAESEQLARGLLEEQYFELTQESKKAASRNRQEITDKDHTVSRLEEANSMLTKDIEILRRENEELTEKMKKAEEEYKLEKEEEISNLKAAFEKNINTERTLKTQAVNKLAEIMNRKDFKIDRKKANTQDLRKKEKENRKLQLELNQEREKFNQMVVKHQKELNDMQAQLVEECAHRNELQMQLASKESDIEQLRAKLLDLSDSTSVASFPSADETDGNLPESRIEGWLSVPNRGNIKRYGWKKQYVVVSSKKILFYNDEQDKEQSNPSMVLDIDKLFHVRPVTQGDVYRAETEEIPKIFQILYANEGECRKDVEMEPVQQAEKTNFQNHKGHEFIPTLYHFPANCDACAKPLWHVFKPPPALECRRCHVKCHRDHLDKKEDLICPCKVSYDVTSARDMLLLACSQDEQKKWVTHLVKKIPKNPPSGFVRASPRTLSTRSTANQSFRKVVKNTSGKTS
Experimental: as §1

[12] = target: T12, PKMzeta (Homo sapiens, UniProt Q05513)
T12 construct: PKMzeta; purchased ProQinase (Freiburg, Germany)
T12 sequence (Q05513 184-592 limits assumed): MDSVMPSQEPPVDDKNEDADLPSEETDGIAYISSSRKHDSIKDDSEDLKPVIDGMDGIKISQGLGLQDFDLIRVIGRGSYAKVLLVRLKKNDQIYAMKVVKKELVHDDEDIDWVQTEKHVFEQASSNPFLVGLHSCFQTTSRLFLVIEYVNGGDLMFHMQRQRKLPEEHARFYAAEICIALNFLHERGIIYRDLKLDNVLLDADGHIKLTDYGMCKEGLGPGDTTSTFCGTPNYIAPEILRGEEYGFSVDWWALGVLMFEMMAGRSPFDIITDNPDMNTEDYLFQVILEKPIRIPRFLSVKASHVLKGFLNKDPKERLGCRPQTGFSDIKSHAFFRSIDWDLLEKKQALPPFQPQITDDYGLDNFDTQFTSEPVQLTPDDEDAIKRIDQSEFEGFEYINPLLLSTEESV
Experimental: as §1

Structure (SMILES)	Residual activity ([1]; 1.0E-05 M)	Residual activity ([1]; 1.0E-06 M)	Residual activity ([2]; 1.0E-05 M)	Residual activity ([2]; 1.0E-06 M)	Residual activity ([3]; 1.0E-05 M)	Residual activity ([3]; 1.0E-06 M)	Residual activity ([4]; 1.0E-05 M)	Residual activity ([4]; 1.0E-06 M)	Residual activity ([5]; 1.0E-05 M)	Residual activity ([5]; 1.0E-06 M)	Residual activity ([6]; 1.0E-05 M)	Residual activity ([6]; 1.0E-06 M)	Residual activity ([7]; 1.0E-05 M)	Residual activity ([7]; 1.0E-06 M)	Residual activity ([8]; 1.0E-05 M)	Residual activity ([8]; 1.0E-06 M)	Residual activity ([9]; 1.0E-05 M)	Residual activity ([9]; 1.0E-06 M)	Residual activity ([10]; 1.0E-05 M)	Residual activity ([10]; 1.0E-06 M)	further results
O=C(Cc1ccccc1)Nc1ccc(F)c(Nc2ccc3c(c2)CCCCC3=O)c1 [Compound 100]	69 % of control	88 % of control	78 % of control	87 % of control	92 % of control	90 % of control	84 % of control	106 % of control	74 % of control	99 % of control	94 % of control	104 % of control	100 % of control	103 % of control	95 % of control	90 % of control	92 % of control	102 % of control	95 % of control	96 % of control	Residual activity ([11]; 1.0E-05 M): 92 % of control; Residual activity ([11]; 1.0E-06 M): 99 % of control; Residual activity ([12]; 1.0E-05 M): 98 % of control; Residual activity ([12]; 1.0E-06 M): 105 % of control
O=C(Nc1ccc(F)c(Nc2ccc3c(c2)CCCCC3=O)c1)c1cccc(F)c1 [Compound 109]	80 % of control	94 % of control	78 % of control	88 % of control	93 % of control	87 % of control	91 % of control	96 % of control	82 % of control	100 % of control	108 % of control	93 % of control	95 % of control	100 % of control	91 % of control	92 % of control	91 % of control	88 % of control	88 % of control	104 % of control	Residual activity ([11]; 1.0E-05 M): 102 % of control; Residual activity ([11]; 1.0E-06 M): 99 % of control; Residual activity ([12]; 1.0E-05 M): 88 % of control; Residual activity ([12]; 1.0E-06 M): 103 % of control
